Target: T1, small-conductance Ca2+-activated K+ channels (SK channels, isoform 2) (Rattus norvegicus, UniProt P70604)
T1 construct: expressed in transfected cells; host or cells: HEK293
Test: Whole-cell patch-clamp recording of SK channel current in stably transfected HEK293 cells
Format: cell-based
Conditions: rat SK2 stably expressed in HEK293 cells, room temperature, IC50 = Koff/Kon from kinetics of the block, read-out: biological activity determined as IC50
Procedure: In this experiment. small-conductance Ca^2+-activated K^+ channels (SK channels, isoform 2) cloned from a rat cDNA library were stably expressed in HEK293 cells using standard procedures. The ionic current through the channels was recorded in the whole-cell mode of the patch-clamp technique.
Cells plated on coverstips are placed in a 15 μl perfusion chamber (flowrate ˜1 ml/min), mounted on a IMT-2 microscope equipped with Nomarski or Hoffmann optics. The microscopes are placed on vibration-free tables in grounded Faraday cages.
All experiments are performed at room temperature (20-22° C.). […] Data are stored directly on the harddisk and analysed by the IGOR software according to the manufacturer's instructions.
The whole-cell configuration of the patch clamp technique is applied. […] Cell capacitance is electronically compensated and the resistance between the pipette and the cell interior (the series resistance, Rs) is measured and compensated for. […]
In the experiments where the effect of channel activators is quantified (test 475), the intracellular (pipette) solution has the following composition (concentration in mM):
The calculated free concentration of Ca^2+ in this solution is 100 nM, and that of Mg^2+ is 1 mM. In these experiments, the concentration of CaCl2 is 7.6 mM and that of MgCl2 is 1.2 mM to give calculated free concentrations of 300 nM and 1 mM, respectively. […]

IC50: < 1 µM
Structure (SMILES): CN1CCN(C)c2nc(c3ccccc3n2)NCC2CCCC(CNc3nc1nc1ccccc31)C2 [Compound 2, 20,23-dimethyl-2,10,18,20,23,25,32,33-octaazahexacyclo [22.7.1.1^4.8.1^11,19.0^12,17.0^26,31] tetratriaconta-1(32).11,13,15,17,19(33),24,26,28,30-decaene]

Reference: patent US6878701B2, “Potassium channel blocking agents” (Neurosearch A/S, priority 1999, dated 2005)
